{
  "source": "the Kinase Knowledgebase extract (Sharma et al. 2016)",
  "data": [
    {"target": "EGFR (UniProt P00533)", "sequence (P00533 whole entry, looked up)": "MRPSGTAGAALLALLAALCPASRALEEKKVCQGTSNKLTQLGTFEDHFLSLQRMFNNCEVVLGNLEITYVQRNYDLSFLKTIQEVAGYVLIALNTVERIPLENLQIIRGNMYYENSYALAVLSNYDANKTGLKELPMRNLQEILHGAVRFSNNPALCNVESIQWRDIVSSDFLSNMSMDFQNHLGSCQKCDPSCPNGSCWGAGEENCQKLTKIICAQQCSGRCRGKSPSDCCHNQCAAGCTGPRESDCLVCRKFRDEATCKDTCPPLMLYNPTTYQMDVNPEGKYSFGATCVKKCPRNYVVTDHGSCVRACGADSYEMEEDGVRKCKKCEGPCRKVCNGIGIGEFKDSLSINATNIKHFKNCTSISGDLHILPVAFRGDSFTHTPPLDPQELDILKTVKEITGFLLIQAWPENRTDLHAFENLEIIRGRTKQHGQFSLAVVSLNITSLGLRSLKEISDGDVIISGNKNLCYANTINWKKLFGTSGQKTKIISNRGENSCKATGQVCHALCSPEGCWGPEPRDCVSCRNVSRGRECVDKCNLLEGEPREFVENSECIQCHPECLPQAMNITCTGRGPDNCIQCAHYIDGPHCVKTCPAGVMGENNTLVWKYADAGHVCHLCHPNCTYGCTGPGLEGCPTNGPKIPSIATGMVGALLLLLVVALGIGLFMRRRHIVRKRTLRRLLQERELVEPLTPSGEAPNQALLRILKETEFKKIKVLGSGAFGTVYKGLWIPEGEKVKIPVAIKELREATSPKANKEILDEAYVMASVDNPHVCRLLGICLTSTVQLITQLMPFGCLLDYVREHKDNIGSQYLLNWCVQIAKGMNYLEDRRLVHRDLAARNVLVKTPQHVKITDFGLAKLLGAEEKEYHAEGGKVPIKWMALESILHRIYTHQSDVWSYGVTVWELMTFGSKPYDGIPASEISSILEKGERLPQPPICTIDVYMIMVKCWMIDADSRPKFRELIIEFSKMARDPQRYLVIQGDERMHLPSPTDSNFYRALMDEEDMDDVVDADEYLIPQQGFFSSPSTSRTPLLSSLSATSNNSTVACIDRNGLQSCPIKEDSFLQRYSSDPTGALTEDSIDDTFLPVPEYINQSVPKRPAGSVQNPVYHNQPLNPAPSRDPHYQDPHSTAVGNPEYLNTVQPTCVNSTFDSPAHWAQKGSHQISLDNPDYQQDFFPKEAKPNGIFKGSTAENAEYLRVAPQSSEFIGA", "units": {"IC50": "µM"}, "values": [
      {"compound": "Cc1cccc(Nc2ccnc(Nc3cccc(Br)c3)n2)c1", "IC50": "≥ 10"},
      {"compound": "COc1cc(Nc2nccc(-n3ccc(-c4ccc(Cl)cc4)n3)n2)cc(OC)c1OC", "IC50": "≥ 10"},
      {"compound": "COc1cc(Nc2ccnc(Nc3ccc(OCc4ccccc4)cc3)n2)cc(OC)c1OC", "IC50": "≥ 10"},
      {"compound": "COc1cc(Nc2ccnc(Nc3ccc(Oc4ccccc4)cc3)n2)cc(OC)c1OC", "IC50": "5 to 10"},
      {"compound": "COc1ccc(-c2ccn(-c3ccnc(Nc4cc(OC)c(OC)c(OC)c4)n3)n2)cc1", "IC50": "5 to 10"},
      {"compound": "COc1cc(Nc2nccc(-n3c(N)nc4ccccc43)n2)cc(OC)c1OC", "IC50": "≥ 10"},
      {"compound": "COc1cc(Nc2nccc(Nc3cc(C(C)(C)C)n[nH]3)n2)cc(OC)c1OC", "IC50": "5 to 10"},
      {"compound": "Clc1cccc(Nc2ccnc(Nc3cccc(Cl)c3)n2)c1", "IC50": "≥ 10"},
      {"compound": "COc1cc(Nc2nccc(Nc3ccc4c(cnn4Cc4ccccc4)c3)n2)cc(OC)c1OC", "IC50": "< 1.5"},
      {"compound": "COc1cc(Nc2nccc(-n3ccc4ccccc43)n2)cc(OC)c1OC", "IC50": "≥ 10"},
      {"compound": "COc1cc(Nc2ccnc(Nc3ccc4c(cnn4Cc4ccccc4)c3)n2)cc(OC)c1OC", "IC50": "1.5 to 5"},
      {"compound": "COc1ccc(Nc2ccnc(Nc3ccc(OC)c(OC)c3)n2)cc1OC", "IC50": "≥ 10"},
      {"compound": "COc1cc(Nc2nccc(-n3c(=O)[nH]c4ccccc43)n2)cc(OC)c1OC", "IC50": "≥ 10"},
      {"compound": "COc1cc(Nc2nccc(-n3c(=O)oc4ccccc43)n2)cc(OC)c1OC", "IC50": "≥ 10"},
      {"compound": "COc1cc(Nc2ccnc(-n3ccc4ccccc43)n2)cc(OC)c1OC", "IC50": "≥ 10"},
      {"compound": "Cc1cccc(Nc2nccc(Nc3cccc(Br)c3)n2)c1", "IC50": "≥ 10"}
    ]}
  ]
}
